In patent US11807693B2 (priority 2014, dated 2023):
pEC50: −log10 of the molar value. Where two headings read alike, the source gives them in different places. Starred links: 1 amine or outer side, 2 acyl side, 3 side chain; linkers in the order of their positions; H or OH if unused. Non-standard residues stand in square brackets, D forms with d. Residues, ends and D or L forms follow the SMILES beside them. *: point of attachment. dBip = N[C@H](Cc1ccc(-c2ccccc2)cc1)C(=O)O; Oic = O=C(O)[C@@H]1C[C@@H]2CCCC[C@@H]2N1; Phe(4-Cl) = N[C@@H](Cc1ccc(Cl)cc1)C(=O)O; Phe(4-I) = N[C@@H](Cc1ccc(I)cc1)C(=O)O; γGlu = O=C(O)[C@H](CCC(=O)[*:2])N[*:1]; NMeR = CN[C@@H](CCCNC(=N)N)C(=O)O; Palmitoyl = CCCCCCCCCCCCCCCC(=O)*; Tridecanoyl = CCCCCCCCCCCCC(=O)*; hArg = N=C(N)NCCCC[C@H](N)C(=O)O; Cha = N[C@@H](CC1CCCCC1)C(=O)O; NMeL = CN[C@@H](CC(C)C)C(=O)O; αMeL = CC(C)C[C@](C)(N)C(=O)O; Aic = NC1(C(=O)O)Cc2ccccc2C1; αMeP = C[C@@]1(C(=O)O)CCCN1; β3hP = O=C(O)C[C@@H]1CCCN1; Pip = O=C(O)[C@@H]1CCCCN1; Nle = CCCC[C@H](N)C(=O)O; Orn = NCCC[C@H](N)C(=O)O; Hexanoyl = CCCCCC(=O)*; AEEA = NCCOCCOCC(=O)O; Aib = CC(C)(N)C(=O)O; Inp = O=C(O)C1CCNCC1

Tests used:
rat APJ receptor = target: T1, rat APJ receptor (Rattus norvegicus, UniProt Q9JHG3); test: [35S] GTPγS assay, rat APJ receptor; type: biochemical
T1 construct: expressed in transfected cells
T1 sequence (Q9JHG3 1-377): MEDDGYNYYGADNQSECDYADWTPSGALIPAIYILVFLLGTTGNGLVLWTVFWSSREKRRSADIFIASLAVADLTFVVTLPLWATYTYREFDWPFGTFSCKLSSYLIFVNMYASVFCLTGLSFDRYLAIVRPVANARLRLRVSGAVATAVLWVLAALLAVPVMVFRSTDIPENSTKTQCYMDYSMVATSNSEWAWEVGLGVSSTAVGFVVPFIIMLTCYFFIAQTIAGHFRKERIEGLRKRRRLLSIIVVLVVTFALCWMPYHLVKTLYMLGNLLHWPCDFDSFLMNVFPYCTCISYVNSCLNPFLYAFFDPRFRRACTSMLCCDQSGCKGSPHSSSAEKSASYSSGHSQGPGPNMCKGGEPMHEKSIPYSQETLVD
Method: The membranes were incubated with modified peptides in the assay buffer. […] Bound [^35S] GTPγS was separated from free radiolabel by filtration. The filter bound radioactivity was determined by liquid scintillation counting.

[1] = In vitro stability in rat plasma; type: in vitro ADME
Procedure, shortened: (§1)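 Stability was followed for 4 hr at 37° C. after spiking peptides (5 μM final) into rat plasma and tissue homogenates. Methanol quench with internal standard preceded high resolution LC-MS.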

[2] = In vitro stability in rat liver homogenate; type: in vitro ADME; conditions: tissue homogenate
Procedure, shortened: as §1

[3] = In vitro stability in rat kidney homogenate; type: in vitro ADME; conditions: rat, tissue homogenate
Method: Apelin peptides were spiked into rat plasma, liver homogenate, and kidney homogenate, which were obtained from commercial sources, to a final concentration of 5 μM. The samples were then incubated at 37° C. over a period of 4 hr. […] In a typical experiment, an aliquot of 100 μL of sample was taken from the incubation vial, followed by addition of 300 μL of MeOH containing internal standard. The quenched sample was centrifuged at 5500 g for 15 min after 15 min vortex in room temperature. The supernatant was then analyzed by high resolution LC-MS. […] In vitro plasma, […], and kidney stability results are shown below in Table 14.

[4] = rat APJ receptor, read-out: EC50 Rat APJ Receptor

Row | Structure (SMILES) | pEC50 (rat APJ receptor; [4]) | remaining at 4 h, 5 μM [1] [%] | remaining at 4 h, 5 μM [2] [%] | remaining at 4 h, 5 μM [3] [%] | pEC50 (rat APJ receptor; Table 16, read-out: EC50 Rat APJ Receptor)
1 | CC(=O)N[C@@H](CCCCNC(=N)N)C(=O)N[C@H](CCCNC(=N)N)C(=O)N[C@@H](CCC(N)=O)C(=O)N[C@@H](CCCCNC(=N)N)C(=O)N1CCC[C@H]1C(=O)N[C@@H](CCC(=O)O)C(=O)N(C)[C@@H](CC(C)C)C(=O)N[C@@H](CO)C(=O)N[C@@H](Cc1c[nH]cn1)C(=O)N[C@@H](CCCCN)C(=O)NCC(=O)N1[C@H](C(=O)N[C@@H](Cc2ccc(I)cc2)C(=O)N2CCC[C@H]2C(=O)N[C@H](Cc2ccc(-c3ccccc3)cc2)C(=O)O)C[C@@H]2CCCC[C@@H]21 [compound 79] (Ac-[hArg][dR]Q[hArg]PE[NMeL]SHKG[Oic][Phe(4-I)]P[dBip]-OH) | 9.47 | > 90 | < 1 | 1.3 | –
2 | CCCCCCCCCCCCC(=O)N[C@@H](CCC(=O)N[C@@H](CCC(=O)NCCOCCOCC(=O)N[C@H](CCC(N)=O)C(=O)N[C@@H](CCCNC(=N)N)C(=O)N1CCC[C@H]1C(=O)N(C)[C@@H](CCCNC(=N)N)C(=O)N[C@@H](CC1CCCCC1)C(=O)N[C@@H](CO)C(=O)N[C@@H](Cc1c[nH]cn1)C(=O)N[C@@H](CCCCN)C(=O)NCC(=O)N1[C@H](C(=O)N[C@@H](CCCC)C(=O)NC(C)(C)C(=O)N[C@@H](Cc2ccc(Cl)cc2)C(=O)O)C[C@@H]2CCCC[C@@H]21)C(=O)O)C(=O)O [compound 535] ({Tridecanoyl-γGlu-γGlu-AEEA}-[dQ]RP[NMeR][Cha]SHKG[Oic][Nle][Aib][Phe(4-Cl)]-OH) | – | 89 | 3 | < 1 | –
3 | CCCCCCCCCCCCC(=O)N[C@H](CC(=O)O)C(=O)NCCOCCOCC(=O)NCCOCCOCC(=O)N[C@H](CCC(N)=O)C(=O)N[C@@H](CCCNC(=N)N)C(=O)N1CCC[C@H]1C(=O)N(C)[C@@H](CCCNC(=N)N)C(=O)N[C@@H](CC1CCCCC1)C(=O)N[C@@H](CO)C(=O)N[C@@H](Cc1c[nH]cn1)C(=O)N[C@@H](CCCCN)C(=O)NCC(=O)N1[C@H](C(=O)N[C@@H](CCCC)C(=O)NC(C)(C)C(=O)N[C@@H](Cc2ccc(Cl)cc2)C(=O)O)C[C@@H]2CCCC[C@@H]21 [compound 538] (Tridecanoyl-[dD][AEEA][AEEA][dQ]RP[NMeR][Cha]SHKG[Oic][Nle][Aib][Phe(4-Cl)]-OH) | – | 73 | 2 | < 1 | –
4 | CCCCCCCCCCCCC(=O)N[C@@H](CCC(=O)NCCOCCOCC(=O)NCCOCCOCC(=O)N[C@@H](CCC(N)=O)C(=O)N1CCC[C@H]1CC(=O)N(C)[C@@H](CCCNC(=N)N)C(=O)N[C@@H](CC1CCCCC1)C(=O)N[C@@H](CO)C(=O)N[C@@H](Cc1c[nH]cn1)C(=O)N[C@@H](CCCCN)C(=O)NCC(=O)N1[C@H](C(=O)N[C@@H](CCCC)C(=O)NC(C)(C)C(=O)N[C@@H](Cc2ccc(Cl)cc2)C(=O)O)C[C@@H]2CCCC[C@@H]21)C(=O)O [compound 550] ({Tridecanoyl-γGlu-AEEA-AEEA}-Q[β3hP][NMeR][Cha]SHKG[Oic][Nle][Aib][Phe(4-Cl)]-OH) | – | > 90 | 2 | < 1 | –
5 | CCCCCCCCCCCCC(=O)N[C@@H](CCC(=O)NCCOCCOCC(=O)NCCOCCOCC(=O)N[C@H](CCC(N)=O)C(=O)N[C@@H](CCCNC(=N)N)C(=O)N1CCC[C@H]1CC(=O)N(C)[C@@H](CCCNC(=N)N)C(=O)N[C@@](C)(CC(C)C)C(=O)N[C@@H](CO)C(=O)N[C@@H](Cc1c[nH]cn1)C(=O)N[C@@H](CCCCN)C(=O)NCC(=O)N1[C@H](C(=O)N[C@@H](CCCC)C(=O)N2CCC[C@@]2(C)C(=O)N[C@@H](Cc2ccc(Cl)cc2)C(=O)O)C[C@@H]2CCCC[C@@H]21)C(=O)O [compound 553] ({Tridecanoyl-γGlu-AEEA-AEEA}-[dQ]R[β3hP][NMeR][αMeL]SHKG[Oic][Nle][αMeP][Phe(4-Cl)]-OH) | – | > 90 | 29 | 15 | –
6 | CCCCCC(=O)N[C@@H](CCC(=O)NCCOCCOCC(=O)NCCOCCOCC(=O)N[C@@H](CCC(N)=O)C(=O)N[C@@H](CCCNC(=N)N)C(=O)N1CCC[C@H]1C(=O)N(C)[C@@H](CCCNC(=N)N)C(=O)N[C@@H](CC1CCCCC1)C(=O)N[C@@H](CO)C(=O)N[C@@H](Cc1c[nH]cn1)C(=O)N[C@@H](CCCCN)C(=O)NCC(=O)N1[C@H](C(=O)N[C@@H](CCCC)C(=O)NC(C)(C)C(=O)N[C@@H](Cc2ccc(Cl)cc2)C(=O)O)C[C@@H]2CCCC[C@@H]21)C(=O)O [compound 562] ({Hexanoyl-γGlu-AEEA-AEEA}-QRP[NMeR][Cha]SHKG[Oic][Nle][Aib][Phe(4-Cl)]-OH) | – | > 90 | 4 | < 1 | –
7 | CCCCCCCCCCCCCCCC(=O)N[C@@H](CCC(=O)NCCOCCOCC(=O)NCCOCCOCC(=O)N[C@H](CCC(N)=O)C(=O)N[C@@H](CCCNC(=N)N)C(=O)N1CCC[C@H]1C(=O)N(C)[C@@H](CCCNC(=N)N)C(=O)N[C@@H](CC1CCCCC1)C(=O)N[C@@H](CO)C(=O)N[C@@H](Cc1c[nH]cn1)C(=O)N[C@@H](CCCCN)C(=O)NCC(=O)N1CCCC[C@H]1C(=O)N[C@@H](CCCC)C(=O)N1CCC[C@H]1C(=O)NC1(C(=O)O)Cc2ccccc2C1)C(=O)O [compound 590] ({Palmitoyl-γGlu-AEEA-AEEA}-[dQ]RP[NMeR][Cha]SHKG[Pip][Nle]P[Aic]-OH) | – | 86 | 11 | 4 | –

The next lines start with the values.

Row | pEC50 (rat APJ receptor; [4]) | remaining at 4 h, 5 μM [1] [%] | remaining at 4 h, 5 μM [2] [%] | remaining at 4 h, 5 μM [3] [%] | pEC50 (rat APJ receptor; Table 16, read-out: EC50 Rat APJ Receptor) | Structure (SMILES)
8 | 8.99 | > 90 | 40.3 | < 1 | – | CCCCCCCCCCCCC(=O)N[C@@H](CCC(=O)NCCOCCOCC(=O)NCCOCCOCC(=O)N[C@@H](CCCN)C(=O)N[C@@H](Cc1ccccc1)C(=O)N[C@@H](CCCCNC(=N)N)C(=O)N[C@@H](CCCCNC(=N)N)C(=O)N[C@@H](CCC(N)=O)C(=O)N(C)[C@@H](CCCNC(=N)N)C(=O)N1CCC[C@H]1C(=O)N(C)[C@@H](CCCNC(=N)N)C(=O)N[C@@H](CC1CCCCC1)C(=O)N[C@@H](CO)C(=O)N[C@@H](Cc1c[nH]cn1)C(=O)N[C@@H](CCCCN)C(=O)NCC(=O)N1[C@H](C(=O)N[C@@H](CCCC)C(=O)N2CCC[C@H]2C(=O)N[C@@H](Cc2ccc(Cl)cc2)C(=O)O)C[C@@H]2CCCC[C@@H]21)C(=O)O [compound 297] ({Tridecanoyl-γGlu-AEEA-AEEA}-[Orn]F[hArg][hArg]Q[NMeR]P[NMeR][Cha]SHKG[Oic][Nle]P[Phe(4-Cl)]-OH)
9 | – | 76 | 6.2 | < 1 | 9.74 | CCCCCCCCCCCCC(=O)N[C@@H](CCC(=O)NCCOCCOCC(=O)NCCOCCOCC(=O)N[C@@H](CCC(N)=O)C(=O)N[C@@H](CCCNC(=N)N)C(=O)N1CCC[C@H]1C(=O)N[C@@H](CCCCNC(=N)N)C(=O)N[C@@H](CC1CCCCC1)C(=O)N[C@@H](CO)C(=O)N[C@@H](Cc1c[nH]cn1)C(=O)N[C@@H](CCCCN)C(=O)NCC(=O)N1[C@H](C(=O)N[C@@H](CCCC)C(=O)N2CCC[C@H]2C(=O)N[C@@H](Cc2ccc(Cl)cc2)C(=O)O)C[C@@H]2CCCC[C@@H]21)C(=O)O [compound 308] ({Tridecanoyl-γGlu-AEEA-AEEA}-QRP[hArg][Cha]SHKG[Oic][Nle]P[Phe(4-Cl)]-OH)
10 | – | > 90 | 19 | < 1 | – | CCCCCCCCCCCCC(=O)N[C@@H](CCC(=O)NCCOCCOCC(=O)NCCOCCOCC(=O)N[C@H](CCC(N)=O)C(=O)N[C@@H](CCCNC(=N)N)C(=O)N1CCCC[C@H]1C(=O)N(C)[C@@H](CCCNC(=N)N)C(=O)N[C@@H](CC1CCCCC1)C(=O)N[C@@H](CO)C(=O)N[C@@H](Cc1c[nH]cn1)C(=O)N[C@@H](CCCCN)C(=O)NCC(=O)N1[C@H](C(=O)N[C@@H](CCCC)C(=O)NC(C)(C)C(=O)N[C@@H](Cc2ccc(Cl)cc2)C(=O)O)C[C@@H]2CCCC[C@@H]21)C(=O)O [compound 517] ({Tridecanoyl-γGlu-AEEA-AEEA}-[dQ]R[Pip][NMeR][Cha]SHKG[Oic][Nle][Aib][Phe(4-Cl)]-OH)
11 | – | > 90 | 64 | 34 | – | CCCCCCCCCCCCCCCC(=O)N[C@@H](CCC(=O)NCCOCCOCC(=O)NCCOCCOCC(=O)N[C@H](CCC(N)=O)C(=O)N[C@@H](CCCNC(=N)N)C(=O)N1CCC[C@H]1C(=O)N(C)[C@@H](CCCNC(=N)N)C(=O)N[C@@H](CC1CCCCC1)C(=O)N[C@@H](CO)C(=O)N[C@@H](Cc1c[nH]cn1)C(=O)N[C@@H](CCCCN)C(=O)NCC(=O)N1[C@H](C(=O)N[C@@H](CCCC)C(=O)N2CCC(C(=O)N[C@@H](Cc3ccc(Cl)cc3)C(=O)O)CC2)C[C@@H]2CCCC[C@@H]21)C(=O)O [compound 587] ({Palmitoyl-γGlu-AEEA-AEEA}-[dQ]RP[NMeR][Cha]SHKG[Oic][Nle][Inp][Phe(4-Cl)]-OH)
